From publication PMC11106072, “CDK9 inhibition as an effective therapy for small cell lung cancer” (Cell Death & Disease, 2024)
pIC50: −log10 of the molar value.

Target: T1, CDK9 (Homo sapiens, UniProt P50750)
T1 construct: with CyclinT1
Experiment: IMAP fluorescence polarisation kinase assay with CDK9/CyclinT1 (TAMRA-Rbtide, […] ATP); radiometric selectivity panel of […] CDK/cyclin pairs
Type: biochemical

T1 sequence (P50750 whole entry): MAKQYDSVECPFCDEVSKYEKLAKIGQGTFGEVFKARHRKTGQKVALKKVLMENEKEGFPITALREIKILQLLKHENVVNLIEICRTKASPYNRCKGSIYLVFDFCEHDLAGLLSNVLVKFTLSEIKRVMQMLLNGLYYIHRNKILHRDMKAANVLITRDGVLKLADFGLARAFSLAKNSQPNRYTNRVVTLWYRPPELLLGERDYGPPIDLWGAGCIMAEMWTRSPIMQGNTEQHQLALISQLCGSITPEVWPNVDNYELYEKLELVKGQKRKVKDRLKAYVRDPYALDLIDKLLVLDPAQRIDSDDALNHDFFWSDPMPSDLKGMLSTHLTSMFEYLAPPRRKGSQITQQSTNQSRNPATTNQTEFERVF
T1 sequence (O60563 whole entry partner): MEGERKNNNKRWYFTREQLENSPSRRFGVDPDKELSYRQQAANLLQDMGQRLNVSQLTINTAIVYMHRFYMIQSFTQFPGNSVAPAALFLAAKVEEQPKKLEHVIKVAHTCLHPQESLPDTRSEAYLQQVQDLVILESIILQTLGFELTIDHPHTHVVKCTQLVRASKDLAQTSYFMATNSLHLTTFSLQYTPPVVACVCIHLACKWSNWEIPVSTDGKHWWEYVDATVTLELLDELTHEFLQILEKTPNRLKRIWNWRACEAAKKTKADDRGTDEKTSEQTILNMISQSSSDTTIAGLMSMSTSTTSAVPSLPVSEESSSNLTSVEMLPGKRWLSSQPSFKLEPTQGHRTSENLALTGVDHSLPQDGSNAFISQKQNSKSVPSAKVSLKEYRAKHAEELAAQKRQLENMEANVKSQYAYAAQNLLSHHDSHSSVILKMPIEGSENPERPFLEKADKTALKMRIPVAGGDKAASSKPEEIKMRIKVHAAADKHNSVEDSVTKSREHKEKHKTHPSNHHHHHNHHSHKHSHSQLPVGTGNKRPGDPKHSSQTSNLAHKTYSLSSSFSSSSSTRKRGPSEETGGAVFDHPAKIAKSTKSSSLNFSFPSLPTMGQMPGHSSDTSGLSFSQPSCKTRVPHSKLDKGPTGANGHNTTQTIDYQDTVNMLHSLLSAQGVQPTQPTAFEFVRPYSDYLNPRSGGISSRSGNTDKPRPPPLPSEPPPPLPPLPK

pIC50: 8.15
SMILES: COc1ccccc1-c1ncnc(Nc2cccc(Cn3cnc4ccccc43)c2)n1 [VC-1, VCC972839:01]
